Values after ≈ are worked out from the molar mass of the structure shown.
Experiments:
in vitro [1] = details: human, 16HBE14o- cells
Description: (§1) Cytotoxicity against human 16HBE14o- after 72 hrs by MTT assay

in vitro [2] = details: chlorocebus sabaeus, Vero E6 cells
Description: (§2) Cytotoxicity against African green monkey Vero E6 cells after 72 hrs by MTT assay

[3] = Aqueous solubility of the compound in Britton-Robinson buffer at pH 6.5 after 48 hrs by shake flask method; assay type: physicochemical
[4] = pampa, pH 7.4, 18 h
Description: (§3) Permeability of compound in PBS at pH 7.4 after 18 hrs by PAMPA

Vero C1008 = details: chlorocebus sabaeus, vero c1008, 72 h
Description: as §2

16HBE14o- = details: human, 72 h
Description: as §1

SARS-CoV-2 = details: 16hbe14o-
Description: Antiviral activity against SARS-CoV-2 infected in 16HBE14o- cells assessed as inhibition of viral replication after 1 day by Nano-Glo luciferase assay

in vitro [5] = details: PAMPA, pH 7.4
Description: as §3

SMILES	CC50 at 72 h (in vitro [1]) [µM]	solubility thermodynamic at 48 h [3] [µg/mL]	permeability [4]	CC50 (Vero C1008) [µM]	also measured
CCC(CC)COC(=O)[C@H](C)N[P@](=O)(OC[C@H]1O[C@@](C#N)(c2ccc3c(N)ncnn23)[C@H](O)[C@@H]1O)Oc1ccccc1	41	–	–	–	CC50 at 72 h (in vitro [2]): 72 µM
CCCOc1cc(Cl)cc(-c2cc(-c3ccccc3C#N)cn(-c3cccnc3)c2=O)c1	20	–	–	–	CC50 at 72 h (in vitro [2]): 22 µM
N#Cc1ccccc1-c1cc(-c2cc(Cl)cc(OCCC(F)(F)F)c2)c(=O)n(-c2cccnc2)c1	25	25 (≈ 50.4 µM)	4 10^-6 cm/s	–	CC50 at 72 h (in vitro [2]): 22 µM
N#Cc1ccccc1-c1cc(-c2cc(Cl)cc(OCC3CC3)c2)c(=O)n(-c2cccnc2)c1	> 100	3 (≈ 6.61 µM)	4.27 10^-6 cm/s	–	CC50 at 72 h (in vitro [2]): > 100 µM
Cn1cc(-c2cc(-c3cc(Cl)c(F)c(OCc4ccccc4Cl)c3)c(=O)n(-c3cccnc3)c2)c(=O)[nH]c1=O	> 32.5	116 (≈ 206 µM)	–	> 32.5	–
Cc1ncoc1COc1cc(Cl)cc(-c2cc(-c3c[nH]c(=O)[nH]c3=O)cn(-c3cccnc3)c2=O)c1	–	168 (≈ 333 µM)	0.24 10^-6 cm/s	–	–
Cn1cc(-c2cc(-c3cc(Cl)cc(OCc4scnc4C(F)(F)F)c3)c(=O)n(-c3cccnc3)c2)c(=O)[nH]c1=O	> 100	24.8 (≈ 42.2 µM)	1.16 10^-6 cm/s	> 100	–
Cc1scnc1COc1cc(Cl)cc(-c2cc(-c3c[nH]c(=O)[nH]c3=O)cn(-c3cccnc3)c2=O)c1	–	–	–	> 100	CC50 (16HBE14o-): 22 µM
O=c1[nH]cc(-c2cc(-c3cc(Cl)c(F)c(OCc4ccccc4Cl)c3)c(=O)n(-c3cccnc3)c2)c(=O)[nH]1	> 95	21.8 (≈ 39.5 µM)	0.73 10^-6 cm/s	> 80	–
Cc1ocnc1COc1cc(Cl)cc(-c2cc(-c3ccccc3C#N)cn(-c3cccnc3)c2=O)c1	–	13.1 (≈ 26.5 µM)	3.04 10^-6 cm/s	–	–
Cn1cc(-c2cc(-c3cc(Cl)cc(OCC4CC4)c3)c(=O)n(-c3cccnc3)c2)c(=O)[nH]c1=O	> 100	14.2 (≈ 29.8 µM)	3.25 10^-6 cm/s	82	–
Cn1cc(-c2cc(-c3cc(Cl)cc(OCc4ocnc4C(F)(F)F)c3)c(=O)n(-c3cccnc3)c2)c(=O)[nH]c1=O	–	34.5 (≈ 60.3 µM)	1.03 10^-6 cm/s	–	–
Cn1cc(-c2cc(-c3cc(Cl)cc(OCCC(F)(F)F)c3)c(=O)n(-c3cccnc3)c2)c(=O)[nH]c1=O	95	57 (≈ 110 µM)	2.26 10^-6 cm/s	> 100	–
O=c1[nH]cc(-c2cc(-c3cc(Cl)cc(OCc4scnc4C(F)(F)F)c3)c(=O)n(-c3cccnc3)c2)c(=O)[nH]1	> 100	–	–	> 100	EC50 (SARS-CoV-2): Not Active
O=c1[nH]cc(-c2cc(-c3cc(Cl)cc(OCc4ocnc4C(F)(F)F)c3)c(=O)n(-c3cccnc3)c2)c(=O)[nH]1	> 100	–	0.57 10^-6 cm/s	> 100	EC50 (SARS-CoV-2): Not Active
Cc1ocnc1COc1cc(Cl)cc(-c2cc(-c3c[nH]c(=O)[nH]c3=O)cn(-c3cccnc3)c2=O)c1	–	7.6 (≈ 15.1 µM)	–	–	–
O=C(N[C@H](CO)[C@H](O)c1ccc([N+](=O)[O-])cc1)C(Cl)Cl [CHLORAMPHENICOL]	–	–	–	–	Papp at 18 h (in vitro [5]): 5 ×10⁻⁶ cm/s
Cn1c(=O)c2[nH]cnc2n(C)c1=O.O [THEOPHYLLINE]	–	–	–	–	Papp at 18 h (in vitro [5]): 0.3 ×10⁻⁶ cm/s

Source: ChEMBL document CHEMBL4823308, “Optimization of Triarylpyridinone Inhibitors of the Main Protease of SARS-CoV-2 to Low-Nanomolar Antiviral Potency” (ACS Med Chem Lett, 2021)
